Patent US12630501B2, “Anti-fibrotic compounds and use thereof” (HADASIT MEDICAL RESEARCH SERVICES AND DEVELOPMENT LTD., priority 2019, dated 2026)

How the values were obtained:
[1] = test system: BLM-treated C57BL/6 WT mice; details: prior finding restated; cited from earlier work
HDAC1 = HDAC1 (Homo sapiens, UniProt Q13547); details: prostate cancer cells; cited from earlier work
HDAC2 = HDAC2 (Homo sapiens, UniProt Q92769); details: prostate cancer cells; cited from earlier work
HDACS = HDACS (Homo sapiens, UniProt Q9UQL6); details: prostate cancer cells; cited from earlier work
HDAC8 = biological target: T1, HDAC8 (Homo sapiens, UniProt Q9BY41); details: prostate cancer cells; cited from earlier work
T1 sequence (Q9BY41 1-377): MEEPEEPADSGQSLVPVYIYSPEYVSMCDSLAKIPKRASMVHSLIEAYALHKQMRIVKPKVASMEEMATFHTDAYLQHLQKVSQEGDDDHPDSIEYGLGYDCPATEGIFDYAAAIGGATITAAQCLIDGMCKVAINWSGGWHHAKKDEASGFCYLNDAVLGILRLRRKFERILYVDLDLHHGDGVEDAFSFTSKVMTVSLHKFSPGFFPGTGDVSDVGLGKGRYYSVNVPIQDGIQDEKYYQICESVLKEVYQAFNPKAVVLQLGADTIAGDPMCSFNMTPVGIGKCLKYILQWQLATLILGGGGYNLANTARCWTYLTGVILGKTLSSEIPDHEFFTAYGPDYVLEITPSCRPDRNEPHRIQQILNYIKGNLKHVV

Ku70 = Ku70 immunoprecipitation with pan-acetyl / Ku70 immunoblot in IPF-lung myofibroblasts; format: cell-based, human; details: CMH 30 μM, 72 h
Method: Human lung myofibroblasts Differentiated fibroblasts from IPF-lungs and controls from patient lung biopsies performed for tumor diagnosis were obtained under a protocol detailed in Wallach-Dayan et al., J. Autoimmun. 59: 67-76, 2015. LL 97A (AlMy) (ATCC® CCL-191™)-IPF-lung, and LL 24 (ATCC® CCL-151™)-normal lung fibroblast cell lines were used.
Immunoprecipitation and immunoblotting Standard protocols were performed as described in Golan-Gerstl et al., Am. J. Respir. Cell Mol. Biol. 47: 271-279, 2012.
FLIP downregulation from an OD of 1.85 to 0.49 (about 3.5-fold) was detected in WB (FIG. 4F), and a […] from a mean fluorescence intensity (MFI)=10^3 to only 10^1 was detected with flow cytometry (FIG. 4G). Thus, SIRT1-mediated Ku70-deacetylation stabilizes IPF-lung myofibroblast FLIP via Ku70/FLIP complex. This effect of CMH on Ku70 further disrupts Ku70/FLIP complex and destabilizes FLIP in IPF-lung myofibroblasts.
IPF cell line ATCC-191 (0.5×10^6), were exposed in culture (10% DMEM) to a compound of Formula 6 (1 or 3 μM) vs. 4% DMSO (vehicle) for 16 h. Ku70 immunoprecipitation with subsequent pan-acetyl (FIG. 8A) and immunoblots of Ku70 with anti-Ku70 mAb (FIG. 8B) or FLIP with anti-FLIP mAb (FIG. 8C) were measured. […] IPF-lung myofibroblasts decreased FLIP expression from an OD of 1.00 to 0.51 (about twofold, FIG. 8C).

[2] = cited from earlier work
IPF cell line ATCC191 = test: Total cell-lysate pan-acetyl immunoblot; format: cell-based, human; details: CMH 30 μM; vehicle 0.62
Method: IPF cell line ATCC191 and Normal cell line ATCC151 (0.5×10^6, 191 and 151, respectively), were cultured (10% DMEM) and total cell acetylations was compared. IPF cell line ATCC191 were further exposed in culture (10% DMEM) to CMH (30 μM, vs. 4% DMSO (vehicle)). Total cell-lysate immunoblots with subsequent pan-acetyl in IPF-lung vs. normal-lung myofibroblasts (191 vs. 151) was measured (FIG. 7A). IPF-lung myofibroblasts treated with CMH were compared to control treatment with vehicle (FIG. 7B). […] Thus, CMH inhibits IPF cell proteins-deacetylation and normalized it.

IPF-lung myofibroblasts = test: Anti-Fas mAb-mediated cell death of IPF-lung myofibroblasts (trypan blue, caspase-3 cleavage); format: cell-based, human
Method: Cell death and apoptosis Apoptosis was assessed with Annexin V affinity labeling, trypan blue exclusion, and caspase-3 cleavage in WB as described in Golan-Gerstl et al., Am. J. Respir. Cell Mol. Biol. 36: 270-275, 2007; Wallach-Dayan et al., PNAS USA 104: 20460-20465, 2007; and Wallach-Dayan et al., Am. J. Physiol. Lung Cell Mol. Physiol. 290: L790-L796, 2006.
Caspase-8 activation further targets effector caspase-3 and caspase-7, a parallel […] pathway, caspases 6 and 9, MAPKs, and Bim phosphorylations with binding cascades to Bax, Apaf-1, and caspase-9, allowing Bax-mediated cell death to be detected as well. Concomitantly, inhibitors of these processes, including FLIP, show negative interaction with FADD and with the inhibitors of apoptotic proteins (IAPs). […] In addition, CMH increased CH-11 anti-human Fas mAb-mediated IPF-myofibroblast cell death (24 h, 10 μM) above that produced by treatment with the vehicle alone (4% DMSO), as shown by microscope images (FIG. 5A) and trypan blue exclusion (FIG. 5A, quantification in inserts, and FIG. 5B, graphical representation), with 0.9-1×10^5 viable cells in control compared to only 0.3×10^5 cells following CMH. In fact, CMH-treated cells were 10 times more likely to undergo Fas-induced apoptosis (2.8 compared to 0.3), as determined by the OD of cleaved to uncleaved caspase-3 ratios (FIG. 5C). CMH therefore amplifies Fas signaling cascades above those induced by Fas alone. Thus, multiple intracellular anti-apoptotic signaling pathways mediated by SIRT1 and Ku70 were altered by CMH in vitro, which further enhanced Fas-apoptosis cascades.

HDAC1, sequence (Q13547 whole entry, species assumed): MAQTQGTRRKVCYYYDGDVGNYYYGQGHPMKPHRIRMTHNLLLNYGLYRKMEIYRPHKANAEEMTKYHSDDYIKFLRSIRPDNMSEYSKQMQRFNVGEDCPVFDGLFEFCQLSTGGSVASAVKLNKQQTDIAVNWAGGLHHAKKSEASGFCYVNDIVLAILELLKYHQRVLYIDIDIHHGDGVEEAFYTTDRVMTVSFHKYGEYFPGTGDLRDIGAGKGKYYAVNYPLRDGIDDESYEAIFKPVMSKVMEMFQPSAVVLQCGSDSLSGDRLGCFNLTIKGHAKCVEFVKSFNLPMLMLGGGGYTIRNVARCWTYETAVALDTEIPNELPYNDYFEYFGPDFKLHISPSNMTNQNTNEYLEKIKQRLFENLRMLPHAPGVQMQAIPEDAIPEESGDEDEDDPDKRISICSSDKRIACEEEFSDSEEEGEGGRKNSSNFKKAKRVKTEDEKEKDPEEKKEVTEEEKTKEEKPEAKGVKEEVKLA
HDAC2, sequence (Q92769 whole entry, species assumed): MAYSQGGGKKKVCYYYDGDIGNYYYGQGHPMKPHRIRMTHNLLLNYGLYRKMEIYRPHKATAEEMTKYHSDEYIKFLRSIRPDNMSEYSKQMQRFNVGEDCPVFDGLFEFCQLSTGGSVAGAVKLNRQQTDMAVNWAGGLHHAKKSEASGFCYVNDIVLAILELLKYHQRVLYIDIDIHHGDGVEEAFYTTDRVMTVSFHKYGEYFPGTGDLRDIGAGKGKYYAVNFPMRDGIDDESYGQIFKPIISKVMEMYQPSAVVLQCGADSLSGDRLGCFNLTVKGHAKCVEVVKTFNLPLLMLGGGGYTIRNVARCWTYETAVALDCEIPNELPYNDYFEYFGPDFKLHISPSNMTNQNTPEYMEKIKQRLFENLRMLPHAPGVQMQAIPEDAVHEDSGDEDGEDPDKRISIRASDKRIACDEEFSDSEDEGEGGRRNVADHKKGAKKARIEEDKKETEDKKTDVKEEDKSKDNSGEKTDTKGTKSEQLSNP
HDACS, sequence (Q9UQL6 whole entry): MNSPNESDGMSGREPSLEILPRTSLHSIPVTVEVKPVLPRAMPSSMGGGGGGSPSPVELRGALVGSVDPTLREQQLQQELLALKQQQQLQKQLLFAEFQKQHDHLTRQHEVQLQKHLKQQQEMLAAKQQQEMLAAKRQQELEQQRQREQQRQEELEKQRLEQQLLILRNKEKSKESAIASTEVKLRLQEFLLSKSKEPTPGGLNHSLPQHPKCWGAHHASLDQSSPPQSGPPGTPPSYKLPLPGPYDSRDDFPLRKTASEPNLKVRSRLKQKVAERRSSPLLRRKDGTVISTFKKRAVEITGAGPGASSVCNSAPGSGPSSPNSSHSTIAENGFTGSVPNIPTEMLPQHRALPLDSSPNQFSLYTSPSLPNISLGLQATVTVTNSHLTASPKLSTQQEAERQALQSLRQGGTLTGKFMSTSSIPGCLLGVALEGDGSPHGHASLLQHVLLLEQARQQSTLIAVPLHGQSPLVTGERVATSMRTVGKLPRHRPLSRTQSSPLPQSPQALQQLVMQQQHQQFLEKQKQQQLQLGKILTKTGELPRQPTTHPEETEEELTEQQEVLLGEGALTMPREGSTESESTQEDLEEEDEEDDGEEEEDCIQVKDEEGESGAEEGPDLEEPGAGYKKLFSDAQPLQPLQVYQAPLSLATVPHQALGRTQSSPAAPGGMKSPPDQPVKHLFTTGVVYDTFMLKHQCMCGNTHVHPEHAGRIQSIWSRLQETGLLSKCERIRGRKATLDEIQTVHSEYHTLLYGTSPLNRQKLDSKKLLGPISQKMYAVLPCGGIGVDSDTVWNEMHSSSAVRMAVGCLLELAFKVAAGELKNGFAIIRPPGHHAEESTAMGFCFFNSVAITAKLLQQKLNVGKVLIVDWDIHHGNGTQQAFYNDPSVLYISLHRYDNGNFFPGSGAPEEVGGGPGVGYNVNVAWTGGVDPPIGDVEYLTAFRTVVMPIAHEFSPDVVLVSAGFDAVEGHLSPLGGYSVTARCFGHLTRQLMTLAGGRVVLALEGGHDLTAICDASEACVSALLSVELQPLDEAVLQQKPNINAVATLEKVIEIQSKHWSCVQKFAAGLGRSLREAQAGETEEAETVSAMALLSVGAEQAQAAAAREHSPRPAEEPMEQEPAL

Cc1cc(Cl)ccc1OCCCC(=O)NO [CMH, 4-(4-chloro-2-methylphenoxy)-N-hydroxybutanamide]
Lung fibrosis in in-vivo model, C57BL/6 mice lungs following bleomycin instillation [1]: attenuate lung fibrosis
Inhibition of HDAC1 (HDAC1): not inhibited
Inhibition of HDAC2 (HDAC2): not inhibited
Inhibition of HDACS (HDACS): not inhibited
Inhibition of HDAC8 (HDAC8): Selective inhibition
Increase of Ku70 acetylation (Ku70): about twofold
Ku70 acetylation, optical density ratio (OD) in pan-acetyl IB of Ku70 IP (Ku70; from 2.43 before): 5.6 OD
Water solubility [2]: low
Protein acetylation, optical density ratio to GAPDH (OD) in pan-acetyl immunoblots (IPF cell line ATCC191): 1.77 OD
Viable cells, trypan blue exclusion (IPF-lung myofibroblasts; CMH plus CH-11 anti-human Fas mAb (24 h, 10 μM), control 0.9-1×10^5): 0.3×10^5 cells
OD of cleaved to uncleaved caspase-3 ratio (IPF-lung myofibroblasts; CMH plus anti-Fas mAb, vehicle 0.3): 2.8
Likelihood to undergo Fas-induced apoptosis vs. vehicle (IPF-lung myofibroblasts; from cleaved to uncleaved caspase-3 ratios): 10 times
